Source: patent US12195464B2, “Lumateperone bis-tosylate salts and crystals and methods for manufacture thereof” (INTRA-CELLULAR THERAPIES, INC., priority 2018, dated 2025)

What was measured:
[1] = solubility in organic solvents; format: physicochemical; conditions: free base, variety of organic solvents
[2] = molecular target: H1 histaminergic (Homo sapiens, UniProt P35367); conditions: receptor associated with cognitive and metabolic side effects; cited from earlier work
[3] = molecular target: T1, 5-HT2C (Homo sapiens, UniProt P28335); conditions: receptor associated with cognitive and metabolic side effects; cited from earlier work
T1 sequence (P28335 33-458): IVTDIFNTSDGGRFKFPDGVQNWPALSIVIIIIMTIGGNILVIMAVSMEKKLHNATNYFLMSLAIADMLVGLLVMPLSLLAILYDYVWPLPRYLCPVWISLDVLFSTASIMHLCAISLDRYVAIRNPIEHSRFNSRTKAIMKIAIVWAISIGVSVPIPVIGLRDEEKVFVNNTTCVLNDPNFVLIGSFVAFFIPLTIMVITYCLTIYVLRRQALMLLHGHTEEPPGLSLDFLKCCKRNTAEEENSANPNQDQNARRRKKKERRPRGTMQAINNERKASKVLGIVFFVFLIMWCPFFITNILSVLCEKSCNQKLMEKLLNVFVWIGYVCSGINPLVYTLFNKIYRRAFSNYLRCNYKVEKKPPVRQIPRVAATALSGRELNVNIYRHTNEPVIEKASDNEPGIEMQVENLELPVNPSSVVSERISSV

[4] = tested on: muscarinic; conditions: receptor associated with cognitive and metabolic side effects; cited from earlier work
[5] = tested on: NMDA and AMPA signaling; conditions: especially in the medial prefrontal cortex (mPFC); indirectly via D1 interaction; cited from earlier work
[6] = free base form; cited from earlier work
[7] = salt of U.S. Pat. No. 7,183,282; cited from earlier work
[8] = salt of U.S. Pat. No. 7,183,282; cited from earlier work; remark: listed apart in the source

H1 histaminergic, sequence (P35367 whole entry): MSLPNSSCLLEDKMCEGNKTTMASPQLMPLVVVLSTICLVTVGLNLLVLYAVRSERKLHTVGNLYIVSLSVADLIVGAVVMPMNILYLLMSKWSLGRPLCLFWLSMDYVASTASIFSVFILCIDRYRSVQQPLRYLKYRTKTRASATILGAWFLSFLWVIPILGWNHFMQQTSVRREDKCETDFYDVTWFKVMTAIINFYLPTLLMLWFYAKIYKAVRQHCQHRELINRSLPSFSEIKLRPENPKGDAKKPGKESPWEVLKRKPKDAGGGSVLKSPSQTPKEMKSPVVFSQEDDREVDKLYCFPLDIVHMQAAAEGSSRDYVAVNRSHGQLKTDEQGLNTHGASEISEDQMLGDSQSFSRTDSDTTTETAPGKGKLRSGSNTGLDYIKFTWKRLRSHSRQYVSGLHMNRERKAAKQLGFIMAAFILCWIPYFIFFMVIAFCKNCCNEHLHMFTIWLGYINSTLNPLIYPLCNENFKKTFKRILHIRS

Row | Compound | solubility in organic solvents [1] | binding to H1 histaminergic receptor [2] | binding to 5-HT2C receptor [3] | binding to muscarinic receptors [4] | NMDA and AMPA signaling in the brain [5] | aqueous solubility [6] | hygroscopicity (in words) [7] | stability (in words) [8]
1 | CN1CCN2c3c(cccc31)[C@@H]1CN(CCCC(=O)c3ccc(F)cc3)CC[C@@H]12 [ITI-007, 4-((6bR,10aS)-3-methyl-2,3,6b,9,10,10a-hexahydro-1H-pyrido[3′,4′:4,5]pyrrolo[1,2,3-de]quinoxalin-8(7H)-yl)-1-(4-fluorophenyl)-1-butanone] | good solubility | negligible binding | negligible binding | negligible binding | enhanced | poor aqueous solubility |  | 
2 | CN1CCN2c3c(cccc31)C1CN(CCCC(=O)c3ccc(F)cc3)CCC12.Cl (centres unmarked) [hydrochloride salt form of ITI-007] |  |  |  |  |  |  | hygroscopic | poor stability
